{"source": "patent US8147444B2", "about": "“Methods of treating or preventing peritonitis with oxidative reductive potential water solution” (Oculus Innovative Sciences, Inc., priority 2006, dated 2012)", "key": {"[1]": {"test_system": "B. atropheus spores, Pseudomonas aeruginosa, and Staphylococcus aureus", "assay": "Bacterial suspension assay, test organisms not told apart", "type": "cell-based", "conditions": "Bacitracin 33 Units/ml; over the time periods tested", "method": "Dermacyn is a ready to use product, therefore performing dilutions during testing was not required.\nA purchased spore suspension of B. atropheus at 2.5×10^7/ml was used for testing. In addition fresh suspensions of Pseudomonas aeruginosa, and Staphylococcus aureus were prepared and measured using a spectrophotometer to ensure the titer was acceptable\n[…] of test substance was added to 100 ul of microbe suspension. The test mixture was held at 20° C. for the contact times of 20 seconds, 5 minutes, and 20 minutes. […] (entire mixture) was added to 9.0 ml of neutralizer for 20 minutes (this is the original neutralization tube or ONT) 1.0 ml of the neutralized test mixture was plated on Tryptic Soy Agar in duplicate for the 5 minute and 20 minute contact times. Additional dilutions and spread plates were used for the 20 second time point, to achieve countable plates.\nAll plates were incubated at 30° C.-35° C. for a total of 3 days and were evaluated after each day of incubation."}, "[2]": {"test_system": "human diploid fibroblasts (HDFs)", "assay": "Cell viability, apoptosis and necrosis by flow cytometry", "type": "cell-based", "conditions": "880 mM", "method": "HP is known to be toxic to eukaryotic cells, increasing apoptosis and necrosis and reducing cellular viability. […] HDF cultures were obtained from three different foreskins, which were pooled and cryopreserved together for the purpose of this study. Only diploid cells were used for all experiments. […] Simultaneous analyses of these parameters were performed in the same cell populations by flow cytometry using: […] B) Annexin V-FITC; and C) Propidium iodide. FIG. 4A-4C disclose percentage values expressed as mean±SD (n=3)."}, "primary HDF cultures": {"test_system": "primary HDF cultures", "conditions": "human, 1 month, 5 µM"}, "[3]": {"test_system": "murine polychromatic erythrocytes", "method": "The mammalian in vivo micronucleus test is used for the identification of substances which cause damage to chromosomes or the mitotic apparatus of murine polychromatic erythrocytes. This damage results in the formation of “micronuclei,” intracellular structures containing lagging chromosome fragments or isolated whole chromosomes. […] The positive control mice received a single intraperitoneal injection of cyclophosphamide (8 mg/mL, 12.5 ml/kg) on day 2. All mice were observed immediately after injection for any adverse reactions. […] On day 3, all mice were weighed and terminated.\nThe femurs were excised from the terminated mice, the bone marrow was extracted, and duplicate smear preparations were performed for each mouse. The bone marrow slides for each animal were read at 40× magnification. The ratio of polychromatic erythrocytes (PCE) to normochromatic erythrocytes (NCE), an index of bone marrow toxicity, was determined for each mouse by counting a total of at least 200 erythrocytes. Then a minimum of 2000 scoreable PCE per mouse were evaluated for the incidence of micronucleated polychromatic erythrocytes. Statistical analysis of the data were done using the Mann and Whitney test (at 5% risk threshold) from a statistical software package (Statview 5.0, SAS Institute Inc., USA)."}}, "note": "Like-named read-outs stand apart in the source and are kept apart here. Bridge positions count the residues as written; N and C are the ends. Square brackets hold non-standard residues; d marks the D form. Peptide text beside a SMILES is read from it. * marks the point of attachment. Ileψ(thiazoline)Cys = CC[C@H](C)[C@H](N)C1=N[C@H](C(=O)*)CS1; dOrn = NCCC[C@@H](N)C(=O)O", "data": [{"compound": "CC[C@H](C)[C@H](N)C1=N[C@H](C(=O)N[C@@H](CC(C)C)C(=O)N[C@H](CCC(=O)O)C(=O)N[C@H](C(=O)N[C@H]2CCCCNC(=O)[C@H](CC(N)=O)NC(=O)[C@@H](CC(=O)O)NC(=O)[C@H](Cc3cnc[nH]3)NC(=O)[C@@H](Cc3ccccc3)NC(=O)[C@H]([C@@H](C)CC)NC(=O)[C@@H](CCCN)NC2=O)[C@@H](C)CC)CS1", "note": "[Bacitracin] ({Ileψ(thiazoline)Cys}-L[dE]IK[dOrn]I[dF]H[dD]N; lactam 4-C)", "values": [{"measurement": "lowering of bacterial or spore populations", "setting": "[1]", "result": "no evidence of lowering the bacterial or spore populations"}]}, {"compound": "OO", "note": "[HP, hydrogen peroxide]", "values": [{"measurement": "Apoptosis, cells exposing Annexin-V", "setting": "[2]; 5 min", "result": 15, "unit": "%"}, {"measurement": "Apoptosis, cells exposing Annexin-V", "setting": "[2]; 30 min", "result": 20, "unit": "%"}, {"measurement": "Cells with SA-β-Gal expression", "setting": "primary HDF cultures", "result": 86, "unit": "%"}]}, {"compound": "O=P1(N(CCCl)CCCl)NCCCO1", "note": "(centres unmarked) [cyclophosphamide]", "values": [{"measurement": "number of polychromatic erythrocytes bearing micronuclei", "setting": "[3]; females, negative control 1.0", "result": 12.6}, {"measurement": "PCE/NCE ratio", "setting": "[3]; females, negative control 1.02", "result": 0.73}, {"measurement": "number of polychromatic erythrocytes bearing micronuclei", "setting": "[3]; males, negative control 0.6", "result": 11.0}, {"measurement": "PCE/NCE ratio", "setting": "[3]; males, negative control 0.90", "result": 0.77}]}]}
